{
  "source": "ChEMBL document CHEMBL1129871",
  "about": "“INVESTIGATION OF BIOISOSTERS OF THE GROWTH HORMONE SECRETAGOGUE L-692,429” (Bioorg Med Chem Lett, 1997)",
  "note": "Non-standard residues stand in square brackets, D forms with d. Residues, ends and D or L forms follow the SMILES beside them.",
  "data": [
    {"organism": "Rattus norvegicus", "assay": "(§1) The compound was tested in vitro for the growth hormone release in rat pituitary cell assays", "format": "functional, Pituitary gland cell", "details": "Rattus norvegicus, Pituitary gland cell", "units": {"EC50": "nM"}, "values": [
      {"compound": "Cc1noc(-c2ccccc2-c2ccc(CN3C(=O)[C@H](NC(=O)CC(C)(C)N)CCc4ccccc43)cc2)n1", "EC50": 1050},
      {"compound": "CC(C)(N)CC(=O)N[C@@H]1CCc2ccccc2N(Cc2ccc(-c3ccccc3-c3ncno3)cc2)C1=O", "EC50": 30},
      {"compound": "CC(C)(N)CC(=O)N[C@@H]1CCc2ccccc2N(Cc2ccc(-c3ccccc3-c3nc[nH]n3)cc2)C1=O", "EC50": 90},
      {"compound": "CC(C)(N)CC(=O)N[C@@H]1CCc2ccccc2N(Cc2ccc(-c3cscc3-c3nn[nH]n3)cc2)C1=O", "EC50": 150},
      {"compound": "CC(C)(N)CC(=O)N[C@@H]1CCc2ccccc2N(Cc2ccc(-c3sccc3-c3nn[nH]n3)cc2)C1=O", "EC50": 140},
      {"compound": "CC(C)(N)CC(=O)N[C@@H]1CCc2ccccc2N(Cc2ccc(-c3ccccc3C(=O)O)cc2)C1=O", "EC50": 2500},
      {"compound": "C[C@H](NC(=O)[C@@H](Cc1c[nH]c2ccccc12)NC(=O)[C@@H](N)Cc1c[nH]cn1)C(=O)N[C@@H](Cc1c[nH]c2ccccc12)C(=O)N[C@H](Cc1ccccc1)C(=O)N[C@@H](CCCCN)C(N)=O", "note": "(H-H[dW]AW[dF]K-NH2)", "EC50": 2},
      {"compound": "Cc1nnc(-c2cscc2-c2ccc(CN3C(=O)[C@H](NC(=O)CC(C)(C)N)CCc4ccccc43)cc2)o1", "EC50": 125},
      {"compound": "COc1nsnc1-c1ccccc1-c1ccc(CN2C(=O)[C@H](NC(=O)CC(C)(C)N)CCc3ccccc32)cc1", "EC50": 1800},
      {"compound": "CC(C)(N)CC(=O)N[C@@H]1CCc2ccccc2N(Cc2ccc(-n3cccc3-c3nn[nH]n3)cc2)C1=O", "EC50": 275},
      {"compound": "CC(C)(N)CC(=O)N[C@@H]1CCc2ccccc2N(Cc2ccc(-c3cccnc3-c3nn[nH]n3)cc2)C1=O", "EC50": 2350},
      {"compound": "Cn1ncnc1-c1ccccc1-c1ccc(CN2C(=O)[C@H](NC(=O)CC(C)(C)N)CCc3ccccc32)cc1", "EC50": 265}
    ]},
    {"organism": "Rattus norvegicus", "assay": "as §1", "format": "functional, Pituitary gland cell", "details": "pituitary gland cell", "units": {"EC50": "nM"}, "values": [
      {"compound": "CC(C)(N)CC(=O)N[C@@H]1CCc2ccccc2N(Cc2ccc(-c3ccccc3-c3nn[nH]n3)cc2)C1=O", "EC50": 125}
    ]}
  ]
}
